Data: patent US20110286979A1, “CHEMOSENSITIZATION BY BI-FUNCTIONAL SMALL HAIRPIN RNA (bi-shRNA)” (GRADALIS, INC., priority 2010, published 2011)
Like-named read-outs stand apart in the source and are kept apart here.

Assays:
[1] = test system: CCL-247 colorectal cancer cells; assay: BrdU Cell Proliferation Assay, docetaxel dose response with/without shRNA plasmid electroporation; assay type: cell-based, human; details: for IC50: Homo sapiens
Description: Docetaxel storage stock was made in 10 mM, with DMSO as solvent in a biological safety cabinet for sterility purposes. Docetaxel solution was stored in 4° C. fridge away from direct light. For each experiment, docetaxel storage solution was brought to room temperature to thaw, about 30 min before usage. A 5 uM working solution was made and further diluted 1:50. To 9.8 ml complete CCL-247 media, 0.2 ml 5 uM working solution was added so that 10 ul of the solution into final volume of 100 ul will make 10 nM. The 10 nM solution was serially diluted to make 5 nM, 2.5 nM, 1.25 nM, 0.625 nM, and 0.3124 nM.
The CCL-247 media comprises HyClone McCoy's 5A medium 500 ml, FBS 50 ml, and L-Glutamine 10 ml. Under the biological cabinet, the above solutions were mixed into McCoy's 5A medium 500 ml bottle. The mixture was poured at the top part of filter, a vacuum pump was turned on to filter the mixed medium through. The media was stored at 4° C. after use.
The % growth inhibition is calculated as: […]

[2] = test system: SK-Mel-28 melanoma cells; assay: as above; details: Homo sapiens
Description: Cells are cultured and grown to sufficient amount for the studies. The shRNA plasmid transfection was performed by electroporation, in the dose of 50 ug/10 million cell. Finally the different ingredients were placed in 96-well plates (media, transfected cells with and without docetaxel, buffer) and incubated at 37° C. with 5% CO2. Growth inhibition was studied using the BrdU Cell Proliferation Assay kit at 24, 48, and 72 hrs.
The cell growth inhibition for each of treatment is calculated from direct OD reading. The % growth inhibition is calculated as:
% growth inhibition of control=ODtreated−ODtreatedNoBrdUcontrol/ODuntreated−ODuntreatedNoBrdUcontrol
wherein, ODtreated: OD reading from the shRNA plasmid and/or docetaxel treated reactant; ODtreatedNoBrdUcontrol: OD reading from the shRNA plasmid and/or docetaxel treated reactant, but without BrdU labeling; ODuntreated: OD reading from reactants without shRNA plasmid or docetaxel treatment; ODuntreatedNoBrdUcontrol: OD reading from reactants without shRNA plasmid or docetaxel treatment, and without BrdU labeling.
The % growth inhibition is calculated and plotted against treatment dose of docetaxel. From the plotted % growth inhibition IC50 is determined from curve for shRNA with/without docetaxel, as well as with docetaxel in different concentrations. IC50—half maximal inhibitory concentration, is a measure of the effectiveness of a compound (docetaxel for this study) in inhibiting biological function (cell growth for this study).

## CC(=O)O[C@@]12CO[C@@H]1C[C@H](O)[C@@]1(C)C(=O)[C@H](O)C3=C(C)[C@@H](OC(=O)[C@H](O)[C@@H](NC(=O)OC(C)(C)C)c4ccccc4)C[C@@](O)([C@@H](OC(=O)c4ccccc4)[C@H]21)C3(C)C [Docetaxel, docetaxel]
[1]; CCL-247, docetaxel alone 1.25 nM, 48 hrs
  cell growth compared to control: about 70%
[1]; 48 h, CCL-247, + pbi-shRNA^STMN1, 48 h, read-out: Docetaxel IC50 (mean ± SD)
  IC50: 0.6 ± 0.4 nM
[1]; 48 h, CCL-247, no ShRNA, 48 h, read-out: Docetaxel IC50 (mean ± SD)
  IC50: 1.8 ± 0.2 nM
[1]; 72 h, CCL-247, + pbi-shRNA^STMN1, 72 h, read-out: Docetaxel IC50 (mean ± SD)
  IC50: 0.6 ± 0.4 nM
[1]; 72 h, CCL-247, + scrambled control, 72 h, read-out: Docetaxel IC50 (mean ± SD)
  IC50: 1 ± 0.6 nM
[1]; 72 h, CCL-247, no ShRNA, 72 h, read-out: Docetaxel IC50 (mean ± SD)
  IC50: 1 ± 0.4 nM
[1]; CCL-247, with STMN1 knockdown (bi-shRNA^STMN1), BrdU, n=3, read-out: IC50 of docetaxel
  IC50: 0.6 ± 0.4 nM
[1]; CCL-247, without STMN1 knockdown, BrdU, n=3, read-out: IC50 of docetaxel
  IC50: 1.8 ± 0.2 nM
[2]; SK-MEL-28, 48 h, read-out: Docetaxel IC50 (mean ± SD), SK-Mel-28, + pbi-shRNA^STMN1, 48 h
  IC50: 0.1 nM
[2]; SK-MEL-28, 48 h, read-out: Docetaxel IC50 (mean ± SD), SK-Mel-28, + scrambled control, 48 h
  IC50: 1 ± 0.2 nM
[2]; SK-MEL-28, 48 h, read-out: Docetaxel IC50 (mean ± SD), SK-Mel-28, no ShRNA, 48 h
  IC50: 1.7 ± 2 nM
[2]; SK-MEL-28, 72 h, read-out: Docetaxel IC50 (mean ± SD), SK-Mel-28, + pbi-shRNA^STMN1, 72 h
  IC50: 0.2 ± 0.1 nM
[2]; SK-MEL-28, 72 h, read-out: Docetaxel IC50 (mean ± SD), SK-Mel-28, + scrambled control, 72 h
  IC50: 0.9 ± 0.2 nM
[2]; SK-MEL-28, 72 h, read-out: Docetaxel IC50 (mean ± SD), SK-Mel-28, no ShRNA, 72 h
  IC50: 0.8 ± 0.2 nM
[2]; SK-MEL-28, read-out: IC50 of docetaxel, SK-Mel-28, with STMN1 knockdown (bi-shRNA^STMN1), BrdU, n=3
  IC50: 0.1 nM
[2]; SK-MEL-28, read-out: IC50 of docetaxel, SK-Mel-28, without STMN1 knockdown, BrdU, n=3
  IC50: 1.7 ± 0.2 nM
